From the NIST ThermoML archive (doi:10.1021/je2010209)
Numbers after ± are expanded uncertainties.

Assays:
[1] = 101 kPa, Liquid; for speed of sound: Sing-around technique in a fixed-path interferometer; for mass density: Vibrating tube method
[2] = xn = mol fraction of the nth substance listed; details: 101 kPa, Liquid, x1 = 1; for speed of sound: Sing-around technique in a fixed-path interferometer; for mass density: Vibrating tube method

| SMILES | speed of sound ([1]; 288.15 K) [m/s] | mass density ([1]; 288.15 K) [kg/m3] | speed of sound ([1]; 293.15 K) [m/s] | mass density ([1]; 293.15 K) [kg/m3] | speed of sound ([1]; 298.15 K) [m/s] | mass density ([1]; 298.15 K) [kg/m3] | speed of sound ([1]; 303.15 K) [m/s] | mass density ([1]; 303.15 K) [kg/m3] | speed of sound ([1]; 308.15 K) [m/s] | mass density ([1]; 308.15 K) [kg/m3] | speed of sound ([1]; 313.15 K) [m/s] | mass density ([1]; 313.15 K) [kg/m3] | speed of sound ([1]; 318.15 K) [m/s] | mass density ([1]; 318.15 K) [kg/m3] | further results |
| --- | --- | --- | --- | --- | --- | --- | --- | --- | --- | --- | --- | --- | --- | --- | --- |
| CCCCn1cc[n+](C)c1.F[B-](F)(F)F [1-butyl-3-methylimidazolium tetrafluoroborate] | 1589 ± 5 | 1206.51 ± 1.3 | 1577 ± 5 | 1202.95 ± 1.3 | 1565 ± 5 | 1199.39 ± 1.3 | 1554 ± 5 | 1195.82 ± 1.3 | 1542 ± 5 | 1192.27 ± 1.3 | 1531 ± 5 | 1188.72 ± 1.2 | 1520 ± 5 | 1185.17 ± 1.2 | – |
| CCCCn1cc[n+](C)c1.F[B-](F)(F)F [1-butyl-3-methylimidazolium tetrafluoroborate] + COCCO | – | – | – | – | – | – | – | – | – | – | – | – | – | – | speed of sound ([2]; 288.15 K): 1589 ± 5 m/s; mass density ([2]; 288.15 K): 1206.51 ± 1.3 kg/m3; speed of sound ([2]; 293.15 K): 1577 ± 5 m/s; mass density ([2]; 293.15 K): 1202.95 ± 1.3 kg/m3; speed of sound ([2]; 298.15 K): 1565 ± 5 m/s; mass density ([2]; 298.15 K): 1199.39 ± 1.3 kg/m3; speed of sound ([2]; 303.15 K): 1554 ± 5 m/s; mass density ([2]; 303.15 K): 1195.82 ± 1.3 kg/m3; speed of sound ([2]; 308.15 K): 1542 ± 5 m/s; mass density ([2]; 308.15 K): 1192.27 ± 1.3 kg/m3; speed of sound ([2]; 313.15 K): 1531 ± 5 m/s; mass density ([2]; 313.15 K): 1188.72 ± 1.2 kg/m3; speed of sound ([2]; 318.15 K): 1520 ± 5 m/s; mass density ([2]; 318.15 K): 1185.17 ± 1.2 kg/m3 |
| COCCOCCO [2-(2-methoxyethoxy)ethanol] | 1451 ± 5 | 1024.6 ± 0.89 | 1434 ± 5 | 1020.2 ± 0.88 | 1416 ± 5 | 1015.79 ± 0.87 | 1399 ± 5 | 1011.36 ± 0.86 | 1382 ± 5 | 1006.92 ± 0.85 | 1366 ± 5 | 1002.47 ± 0.84 | 1349 ± 5 | 998.009 ± 0.83 | – |
| COCCOCCOCCO [2-[2-(2-methoxyethoxy)ethoxy]ethanol] | 1470 ± 5 | 1050.1 ± 2.1 | 1452 ± 5 | 1045.75 ± 2.1 | 1436 ± 5 | 1041.32 ± 2.1 | 1421 ± 5 | 1036.84 ± 2 | 1408 ± 5 | 1032.27 ± 2 | 1393 ± 5 | 1027.76 ± 2 | 1376 ± 5 | 1023.3 ± 2 | – |
| COCCO [2-methoxyethan-1-ol] | 1380 ± 5 | 969.794 ± 1.8 | 1367 ± 5 | 965.063 ± 1.8 | 1351 ± 5 | 960.447 ± 1.8 | 1337 ± 5 | 955.825 ± 1.7 | 1321 ± 5 | 951.214 ± 1.7 | 1304 ± 5 | 946.562 ± 1.7 | 1287 ± 5 | 941.864 ± 1.7 | – |
